The record followed here is ChEMBL document CHEMBL2074091, “Transport of methotrexate, methotrexate polyglutamates, and 17beta-estradiol 17-(beta-D-glucuronide) by ABCG2: effects of acquired mutations at R482 on methotrexate transport” (Cancer Res, 2003).

Holding throughout (assay type): functional, cell membranes
For series [1], the target named is T1, Broad substrate specificity ATP-binding cassette transporter ABCG2 (Homo sapiens, UniProt Q9UNQ0).
T1 sequence (Q9UNQ0 whole entry): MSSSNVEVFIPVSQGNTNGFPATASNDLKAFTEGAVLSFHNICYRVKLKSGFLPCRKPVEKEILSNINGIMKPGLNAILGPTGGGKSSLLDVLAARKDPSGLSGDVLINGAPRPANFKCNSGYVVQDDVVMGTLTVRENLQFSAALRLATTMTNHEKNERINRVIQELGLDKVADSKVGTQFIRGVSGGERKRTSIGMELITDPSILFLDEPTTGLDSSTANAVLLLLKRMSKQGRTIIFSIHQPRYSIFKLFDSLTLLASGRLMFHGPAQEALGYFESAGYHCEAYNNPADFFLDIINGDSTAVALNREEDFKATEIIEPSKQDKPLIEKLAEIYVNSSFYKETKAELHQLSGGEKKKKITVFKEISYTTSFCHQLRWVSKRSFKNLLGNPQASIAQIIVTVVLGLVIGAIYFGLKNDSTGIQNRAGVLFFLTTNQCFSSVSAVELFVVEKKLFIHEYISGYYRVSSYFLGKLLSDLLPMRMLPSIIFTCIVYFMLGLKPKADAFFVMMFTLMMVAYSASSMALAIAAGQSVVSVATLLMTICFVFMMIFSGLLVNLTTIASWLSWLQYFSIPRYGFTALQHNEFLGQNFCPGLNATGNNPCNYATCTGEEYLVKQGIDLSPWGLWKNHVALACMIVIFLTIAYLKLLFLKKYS
The experiment in a line: (§1) TP_TRANSPORTER: uptake (vesicle) in membrane vesicle from ABCG2-R482-expressing HEK293 cells. Particulars: hek293.

For series [2], the target named is Multidrug resistance associated protein (Homo sapiens) (UniProt Q96QA9). The experiment in a line: TP_TRANSPORTER: uptake (vesicle) in membrane vesicles from MRP3-expressing HEK293 cells.
Multidrug resistance associated protein (Homo sapiens), sequence (Q96QA9 as listed by the source): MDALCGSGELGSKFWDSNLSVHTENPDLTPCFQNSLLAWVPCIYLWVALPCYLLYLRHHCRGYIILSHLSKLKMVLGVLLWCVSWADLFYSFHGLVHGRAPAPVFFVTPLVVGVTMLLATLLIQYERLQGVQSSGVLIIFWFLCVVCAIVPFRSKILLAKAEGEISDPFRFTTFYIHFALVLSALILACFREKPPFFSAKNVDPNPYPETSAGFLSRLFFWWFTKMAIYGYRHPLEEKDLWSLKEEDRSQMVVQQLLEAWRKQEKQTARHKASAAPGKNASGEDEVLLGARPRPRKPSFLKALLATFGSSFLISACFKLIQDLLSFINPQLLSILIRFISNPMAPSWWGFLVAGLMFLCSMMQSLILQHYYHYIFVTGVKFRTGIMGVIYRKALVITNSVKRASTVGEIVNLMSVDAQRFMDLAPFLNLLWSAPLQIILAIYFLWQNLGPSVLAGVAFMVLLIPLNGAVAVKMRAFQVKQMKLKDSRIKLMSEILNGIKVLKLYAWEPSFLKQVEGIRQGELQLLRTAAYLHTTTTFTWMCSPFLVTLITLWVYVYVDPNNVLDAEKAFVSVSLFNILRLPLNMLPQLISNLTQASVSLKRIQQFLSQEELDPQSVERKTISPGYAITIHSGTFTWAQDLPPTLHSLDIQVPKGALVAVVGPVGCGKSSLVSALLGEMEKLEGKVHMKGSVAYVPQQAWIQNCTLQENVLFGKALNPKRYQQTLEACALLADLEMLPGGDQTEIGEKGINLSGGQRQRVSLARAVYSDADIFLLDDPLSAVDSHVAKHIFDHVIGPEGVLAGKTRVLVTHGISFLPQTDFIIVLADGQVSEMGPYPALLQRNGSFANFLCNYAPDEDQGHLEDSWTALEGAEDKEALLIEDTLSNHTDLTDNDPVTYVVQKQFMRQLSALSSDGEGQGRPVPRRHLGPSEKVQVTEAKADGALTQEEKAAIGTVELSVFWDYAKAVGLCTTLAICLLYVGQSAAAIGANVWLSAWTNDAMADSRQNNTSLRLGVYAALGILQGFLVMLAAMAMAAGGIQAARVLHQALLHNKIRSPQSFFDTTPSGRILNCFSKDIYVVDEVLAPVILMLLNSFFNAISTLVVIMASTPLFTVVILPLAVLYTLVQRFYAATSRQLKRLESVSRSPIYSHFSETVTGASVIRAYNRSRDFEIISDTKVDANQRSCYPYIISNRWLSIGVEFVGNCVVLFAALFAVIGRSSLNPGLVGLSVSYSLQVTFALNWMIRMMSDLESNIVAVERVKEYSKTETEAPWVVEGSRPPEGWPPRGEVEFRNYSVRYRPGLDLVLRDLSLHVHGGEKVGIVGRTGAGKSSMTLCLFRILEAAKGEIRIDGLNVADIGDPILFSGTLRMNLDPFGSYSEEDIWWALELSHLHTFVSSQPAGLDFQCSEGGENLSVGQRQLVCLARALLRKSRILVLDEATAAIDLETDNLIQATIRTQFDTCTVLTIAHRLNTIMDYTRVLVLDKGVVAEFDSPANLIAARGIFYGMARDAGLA
Series [3] addresses ATP-binding cassette sub-family C member 2 (Homo sapiens, UniProt Q92887). The experiment in a line: TP_TRANSPORTER: uptake (vesicle) in membrane vesicle from MRP2-expressing HEK293 cells.
The next series addresses T2, ABCG2 (R482) (Homo sapiens, UniProt Q9UNQ0).
T2 sequence (Q9UNQ0 whole entry): T1 sequence (Q9UNQ0 whole entry)
Described as §1. Particulars: membrane vesicles from ABCG2-R482-expressing HEK293 cells.

The Km is the concentration of substrate that gives half-maximal velocity.

ATP-binding cassette sub-family C member 2, sequence (Q92887 whole entry): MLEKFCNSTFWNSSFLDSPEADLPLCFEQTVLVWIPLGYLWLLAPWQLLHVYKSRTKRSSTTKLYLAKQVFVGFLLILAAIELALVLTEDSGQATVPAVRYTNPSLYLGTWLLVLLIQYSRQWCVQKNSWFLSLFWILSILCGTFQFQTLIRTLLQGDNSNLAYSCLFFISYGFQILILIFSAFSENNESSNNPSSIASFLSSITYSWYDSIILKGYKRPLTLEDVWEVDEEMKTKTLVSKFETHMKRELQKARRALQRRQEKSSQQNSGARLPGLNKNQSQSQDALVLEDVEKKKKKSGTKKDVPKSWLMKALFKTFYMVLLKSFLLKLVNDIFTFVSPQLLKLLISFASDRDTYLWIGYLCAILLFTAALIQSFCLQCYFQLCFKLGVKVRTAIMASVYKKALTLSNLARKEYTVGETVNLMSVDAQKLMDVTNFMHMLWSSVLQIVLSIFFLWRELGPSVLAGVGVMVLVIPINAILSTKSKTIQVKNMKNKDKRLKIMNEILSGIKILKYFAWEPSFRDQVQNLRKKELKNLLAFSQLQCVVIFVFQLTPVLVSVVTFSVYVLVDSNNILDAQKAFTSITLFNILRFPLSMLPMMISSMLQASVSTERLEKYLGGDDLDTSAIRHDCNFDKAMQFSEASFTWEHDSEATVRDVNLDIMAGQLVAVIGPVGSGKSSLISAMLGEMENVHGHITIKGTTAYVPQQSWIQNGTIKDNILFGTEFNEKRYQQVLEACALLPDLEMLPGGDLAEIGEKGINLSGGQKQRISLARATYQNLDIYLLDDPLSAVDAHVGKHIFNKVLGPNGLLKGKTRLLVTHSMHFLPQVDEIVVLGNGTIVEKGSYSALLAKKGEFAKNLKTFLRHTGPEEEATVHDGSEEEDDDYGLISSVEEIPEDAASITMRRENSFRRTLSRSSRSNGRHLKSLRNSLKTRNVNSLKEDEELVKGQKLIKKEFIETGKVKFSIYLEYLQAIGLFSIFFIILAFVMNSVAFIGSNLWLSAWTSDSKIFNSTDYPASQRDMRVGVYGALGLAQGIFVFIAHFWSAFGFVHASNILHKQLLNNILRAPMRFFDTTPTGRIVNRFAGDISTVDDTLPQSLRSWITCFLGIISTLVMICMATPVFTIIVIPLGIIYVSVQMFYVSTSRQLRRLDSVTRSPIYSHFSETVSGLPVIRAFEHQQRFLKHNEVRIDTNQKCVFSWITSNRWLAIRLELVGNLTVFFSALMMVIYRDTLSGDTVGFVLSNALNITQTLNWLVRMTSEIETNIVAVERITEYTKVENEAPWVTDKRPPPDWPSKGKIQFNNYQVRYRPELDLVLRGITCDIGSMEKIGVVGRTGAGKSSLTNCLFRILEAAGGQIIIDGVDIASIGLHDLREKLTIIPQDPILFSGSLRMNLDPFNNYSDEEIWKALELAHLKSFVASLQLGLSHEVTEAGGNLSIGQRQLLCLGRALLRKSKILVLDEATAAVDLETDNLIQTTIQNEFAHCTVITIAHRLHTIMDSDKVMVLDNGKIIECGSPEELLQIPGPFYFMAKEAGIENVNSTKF

Take `CN(Cc1cnc2nc(N)nc(N)c2n1)c1ccc(C(=O)N[C@@H](CCC(=O)N[C@@H](CCC(=O)N[C@@H](CCC(=O)N[C@@H](CCC(=O)O)C(=O)O)C(=O)O)C(=O)O)C(=O)O)cc1`: the Activity entry in series [1] is “substrate []”.

Consider `CN(Cc1cnc2nc(N)nc(N)c2n1)c1ccc(C(=O)N[C@@H](CCC(=O)N[C@@H](CCC(=O)N[C@@H](CCC(=O)O)C(=O)O)C(=O)O)C(=O)O)cc1`, for which the Activity entry in series [1] was “substrate []”.

For `Nc1nc(=O)c2c([nH]1)NCC(CNc1ccc(C(=O)N[C@@H](CCC(=O)O)C(=O)O)cc1)N2C=O` (some centres not stated), in series [2], the Activity result is “substrate []”.

With `C[C@]12CC[C@@H]3c4ccc(O)cc4CC[C@H]3[C@@H]1CC[C@@H]2O[C@@H]1O[C@H](C(=O)O)[C@@H](O)[C@H](O)[C@H]1O` [ESTRADIOL 17B GLUCURONIDE], the Activity result in series [1] is “substrate []”.

Regarding `Nc1nc2ncc(CNc3ccc(C(=O)N[C@@H](CCC(=O)O)C(=O)O)cc3)nc2c(=O)[nH]1` [FOLIC ACID], the Activity entry in series [1] was “substrate []”.

As for `Nc1nc2c(c(=O)[nH]1)N(C=O)C(CNc1ccc(C(=O)N[C@@H](CCC(=O)O)C(=O)O)cc1)CN2` (some centres not stated) [LEUCOVORIN], the Activity entry in series [3] was “substrate []”.

As for `CN(Cc1cnc2nc(N)nc(N)c2n1)c1ccc(C(=O)N[C@@H](CCC(=O)O)C(=O)O)cc1` [METHOTREXATE], the Km at ABCG2 (R482) came to 1300 µM.
